Like-named read-outs stand apart in the source and are kept apart here.
Assays:
[1] = Plasma concentrations per dose unit of AT and NT in depressive disorder patients (75 mg AT twice daily); assay type: in vivo, human; settings: 12-hour-trough levels
Protocol: Briefly, 75 mg AT was administered twice daily at 12 h dosing intervals. Any drugs or dietary ingredients that might interfere with CYP2D6 or CYP2C19 metabolism were avoided whenever possible. Blood samples (12-hour-trough levels) were taken on days 0, 7, 14, 18, and 21, centrifuged, and stored at 4°C for genotyping (CYP2D6 and CYP2C19) and concentration analyses. The blood samples were subsequently stored at −20°C and later genotyped for OCT1.
The serum concentrations in depressive disorder patients were determined either by the Emit® immunoassay specific for AT and NT or a commercial high-performance liquid chromatography assay (Bio-Rad Laboratories GmbH, Feldkirchen, Germany), as described before ([Steimer et al., 2004]; [Steimer et al., 2005]).
The correlation between AT and NT plasma AUC (study in healthy volunteers) or mean plasma concentration per dose unit (study in depressive disorder patients) and OCT1, CYP2D6, and CYP2C19 genotypes were calculated using the Jonckheere-Terpstra non-parametric analysis, which takes into consideration the a priori ordering (or trend) in gene activities from zero to normal to ultra-rapid (for CYP2C19 and CYP2D6). To do so, the genotypes were categorized into 0, 1, or 2 active alleles for OCT1, into 0, 0.5, 1, 1.5, 2, 2.5, or 3 active alleles for CYP2D6, and into 0, 1, 1.5, 2, 2.5, or 3 active alleles for CYP2C19, depending on their known effects on transporter/enzyme activity. OCT1 alleles *2, *3, *4, *5 were classified as being zero active. […] A semi-quantitative gene dosage was calculated for CYP2D6, as has been described earlier ([Steimer et al., 2004]). For calculating a CYP2C19 activity score, CYP2C19*2 was regarded as zero active, CYP2C19*1 was classified as 1, and CYP2C19*17 as 1.5. Additional multiple linear regression analyses included sex, age, body mass index, and glomerular filtration rate.

OCT1 = target: T1, OCT1 (Homo sapiens, UniProt O15245); test: cell-based
T1 construct: expressed in transfected cells
T1 sequence (O15245 1-554): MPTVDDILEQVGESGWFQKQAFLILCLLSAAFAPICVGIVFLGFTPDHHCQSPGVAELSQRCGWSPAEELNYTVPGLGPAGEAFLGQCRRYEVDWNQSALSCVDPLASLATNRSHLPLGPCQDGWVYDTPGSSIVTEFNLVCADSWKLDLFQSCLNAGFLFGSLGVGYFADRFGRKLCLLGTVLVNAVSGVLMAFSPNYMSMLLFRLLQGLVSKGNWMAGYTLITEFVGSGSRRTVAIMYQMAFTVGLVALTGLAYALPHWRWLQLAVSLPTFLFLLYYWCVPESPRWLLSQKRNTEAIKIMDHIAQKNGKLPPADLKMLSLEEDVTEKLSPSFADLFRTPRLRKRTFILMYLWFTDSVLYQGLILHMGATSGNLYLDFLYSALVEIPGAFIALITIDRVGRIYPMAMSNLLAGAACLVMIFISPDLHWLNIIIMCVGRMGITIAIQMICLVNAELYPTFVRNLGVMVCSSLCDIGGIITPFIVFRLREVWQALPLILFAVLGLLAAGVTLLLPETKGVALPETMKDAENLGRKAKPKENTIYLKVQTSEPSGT
Protocol: The inhibition of OCT1 by different psychotropic drugs was studied in transport experiments using HEK293 cells stably transfected with wild-type OCT1. The cells were generated by targeted chromosomal integration using the Flp-In system (Thermo Fisher Scientific, Darmstadt, Germany), as has been described in detail before ([Saadatmand et al., 2012]). The cells were cultured in Dulbecco’s Modified Eagle’s Medium supplemented with 10% foetal bovine serum, 100 U/ml penicillin, and 100 μg/ml streptomycin at 37°C, 5% CO2, and 95% relative humidity. Cells were kept in culture for no more than 30 passages. All buffers and reagents were purchased from Thermo Fisher Scientific (Darmstadt, Germany).
Approximately 48 h before the transport experiments, recombinant OCT1-expressing cells and empty vector-transfected control cells were seeded at a density of 4 × 10^5 cells/well in 12-well plates coated with poly-D-lysine and incubated as described above. On the day of the experiment, the cells were washed twice with prewarmed (37°C) Hank’s Balanced Salt Solution (HBSS). They were subsequently incubated for 3 min at 37°C with 1 µM of the fluorescent OCT1 substrate ASP^+ (4-(4-(dimethylamino)styryl)-N-methylpyridinium iodide) and increasing concentrations of the antidepressants in 500 µl HBSS. The reaction was stopped by adding 2 ml ice-cold HBSS. This was subsequently removed and the cells were lyzed in 500 µl radioimmunoprecipitation assay (RIPA) buffer for 10 min under shaking. The cell uptake of ASP^+ was quantified using a Tecan Ultra microplate reader (Tecan Group AG, Männedorf, Switzerland) at excitation wavelength 485 nm and emission wavelength 612 nm. The intracellular ASP^+ concentrations were normalised to the total amount of protein in the sample that was determined using the bicinchoninic acid assay ([Smith et al., 1985]). IC50 values were calculated using SigmaPlot 11 (Systat Software GmbH, Erkrath, Germany) and Prism 5 (GraphPad Software, San Diego, CA, United States).

[2] = OCT1 genotype *1 / *1 (n 27), mean ± standard deviation
[3] = OCT1 genotype *1 / *2 (n 14), mean ± standard deviation
[4] = OCT1 genotype *1 / *3 (n 2), mean ± standard deviation
[5] = OCT1 genotype *2 / *2 (n 3), mean ± standard deviation
[6] = OCT1 genotype *2 / *3 (n 2), mean ± standard deviation

inhibition at 3 min, 2.69 µM (OCT1; human, HEK293 cells stably transfected with wild-type OCT1) [%] | IC50 (OCT1; read-out: IC50 (OCT1 inhibition)) [µM] | Structure (SMILES) | Mean plasma concentration per dose unit [1, 2] | Mean plasma concentration per dose unit [1, 3] | Mean plasma concentration per dose unit [1, 4] | Mean plasma concentration per dose unit ([1]; OCT1 genotype *1 / *4 (n 1)) | Mean plasma concentration per dose unit [1, 5] | Mean plasma concentration per dose unit [1, 6] | Mean plasma concentration per dose unit ([1]; OCT1 genotype *3 / *3 (n 1)) | IC50 (OCT1; inhibition of uptake of 1 µM ASP+, 3 min, HEK293 cells with wild-type OCT1, mean) [µM]
– | – | CNCCC=C1c2ccccc2CCc2ccccc21 [Nortriptyline, nortriptyline] | 34.0 ± 18.3 | 33.5 ± 14.6 | 34.6 ± 12.4 | 39.6 | 40.6 ± 26.7 | 28.0 ± 13.2 | 29.9 | 40.4 ± 16.2
23 | 28.6 ± 18.9 | CN(C)CCC=C1c2ccccc2CCc2ccccc21 [Amitriptyline, amitriptyline] | 37.3 ± 15.9 | 44.0 ± 15.2 | 56.9 ± 36.0 | 38.7 | 47.6 ± 15.4 | 52.6 ± 31.9 | 53.9 | –
